This is an account of results in ChEMBL document CHEMBL5154921, “Discovery and Characterization of the First Nonpeptide Antagonists for the Relaxin-3/RXFP3 System” (J Med Chem, 2022).

The target of data set [1] is D(2) dopamine receptor (Homo sapiens) (UniProt P14416). In words: Inhibition of dopamine D2 receptor (unknown origin) at 10 uM relative to control.
Data set [2] addresses Histamine H1 receptor (Homo sapiens) (UniProt P35367). In words: Inhibition of histamine H1 receptor (unknown origin) at 10 uM relative to control.
Data set [3] is described as follows: Apparent permeability of the compound across apical to basolateral side in MDCK-MDRI cells measured upto 90 min by LC-MS/MS analysis. Format: ADME, cell-based, Canis lupus familiaris. To be noted: dog, mdck-mdr1, 1.5 h.
Data set [4] addresses Beta-2 adrenergic receptor (Homo sapiens) (UniProt P07550). Briefly: Inhibition of adrenergic beta-2 receptor (unknown origin) at 10 uM relative to control.
Data set [5] concerns the target D(4) dopamine receptor (Homo sapiens) (UniProt P21917). Briefly: Inhibition of dopamine D4 receptor (unknown origin) at 10 uM relative to control.
The target of data set [6] is Alpha-2C adrenergic receptor (Homo sapiens) (UniProt P18825). Briefly: Inhibition of adrenergic alpha-2C receptor (unknown origin) at 10 uM relative to control.
A short description of data set [7]: Efflux ratio of apparent permeability across basolateral to apical side over apical to basolateral side in MDCK-MDR1 cells measured upto 90 min by LC-MS/MS analysis. It counts as ADME, cell-based, Canis lupus familiaris. To be noted: dog, mdck-mdr1, 1.5 h.
For data set [8], the target named is Muscarinic acetylcholine receptor M1 (Homo sapiens) (UniProt P11229). In words: Inhibition of muscarinic M1 receptor (unknown origin) at 10 uM relative to control.
Data set [9] in a line: Plasma protein binding in Wister rat at 1 uM measured after 6 hrs by LC-MS/MS analysis. It counts as ADME, cell-free.
Data set [10] is described as follows: Half life in Wistar rat plasma at 10 mg/kg, ip measured upto 8 hrs post dose by LC-MS/MS analysis. Format: ADME, organism-based. To be noted: in vivo.
Data set [11] addresses 5-hydroxytryptamine receptor 3A (Homo sapiens) (UniProt P46098). In words: Inhibition of serotonin 5-HT3 receptor (unknown origin) at 10 uM relative to control.
The target in data set [12] is Sigma intracellular receptor 2 (Homo sapiens, UniProt Q5BJF2). In words: Inhibition of sigma-2 receptor (unknown origin).
The target in data set [13] is Sodium-dependent dopamine transporter (Homo sapiens) (UniProt Q01959). Briefly: Inhibition of DAT receptor (unknown origin) at 10 uM relative to control.
In data set [14] the target is T1, Relaxin-3 receptor 1 (Homo sapiens, UniProt Q9NSD7).
T1 sequence (Q9NSD7 whole entry): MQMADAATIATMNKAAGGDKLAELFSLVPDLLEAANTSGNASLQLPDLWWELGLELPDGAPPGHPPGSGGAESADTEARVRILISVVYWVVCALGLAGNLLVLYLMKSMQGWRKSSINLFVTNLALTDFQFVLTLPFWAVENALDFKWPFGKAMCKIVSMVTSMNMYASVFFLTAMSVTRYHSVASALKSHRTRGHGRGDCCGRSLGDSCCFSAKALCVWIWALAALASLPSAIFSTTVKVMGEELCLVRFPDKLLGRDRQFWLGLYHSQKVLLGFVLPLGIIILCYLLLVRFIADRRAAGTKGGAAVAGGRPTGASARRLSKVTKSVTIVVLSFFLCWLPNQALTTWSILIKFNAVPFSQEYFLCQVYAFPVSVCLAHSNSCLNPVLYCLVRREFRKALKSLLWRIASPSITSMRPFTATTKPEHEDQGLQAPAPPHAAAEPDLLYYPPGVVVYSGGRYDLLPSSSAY
In words: Antagonist activity at human RXFP3 expressed in CHO-K1 cells assessed as inhibition of relaxin-3 stimulated ERK1/2 phosphorylation preincubated for 15 mins followed by relaxin-3 addition for 5 mins. Format: functional, cell-based.

Data set [15] has as its target Sodium-dependent serotonin transporter (Homo sapiens) (UniProt P31645). In words: Inhibition of SERT receptor (unknown origin) at 10 uM relative to control.
The target in data set [16] is 5-hydroxytryptamine receptor 2C (Homo sapiens) (UniProt P28335). Briefly: Inhibition of 5HT2C receptor (unknown origin) at 10 uM relative to control.
For data set [17], the target named is T1, Relaxin-3 receptor 1. In words: Antagonist activity at human RXFP3 expressed in CHO-K1 cells assessed as [35S]GTPgammaS binding incubated for 1 hr by [35S]GTP-gammaS binding assay. Format: functional, cell-based.
Data set [18] has as its target Muscarinic acetylcholine receptor M2 (Homo sapiens) (UniProt P08172). In words: Inhibition of muscarinic M2 receptor (unknown origin) at 10 uM relative to control.
Data set [19] has as its target Mu-type opioid receptor (Homo sapiens) (UniProt P35372). Briefly: Inhibition of opioid u receptor (unknown origin) at 10 uM relative to control.
The target of data set [20] is 5-hydroxytryptamine receptor 6 (Homo sapiens) (UniProt P50406). Briefly: Inhibition of serotonin 5-HT6 receptor (unknown origin) at 10 uM relative to control.
For data set [21], the target named is Sigma non-opioid intracellular receptor 1 (Homo sapiens) (UniProt Q99720). Briefly: Inhibition of sigma1 receptor (unknown origin) at 10 uM relative to control.
Data set [22] deals with Kappa-type opioid receptor (Homo sapiens) (UniProt P41145). Briefly: Inhibition of opioid kappa receptor (unknown origin) at 10 uM relative to control.
Data set [23] addresses D(3) dopamine receptor (Homo sapiens) (UniProt P35462). Briefly: Inhibition of dopamine D3 receptor (unknown origin) at 10 uM relative to control.
The nature of data set [24]: Tmax in Wistar rat plasma at 10 mg/kg, ip measured upto 8 hrs post dose by LC-MS/MS analysis. Format: ADME, organism-based. The settings on record: in vivo.

Muscarinic acetylcholine receptor M2 (Homo sapiens), sequence (P08172 whole entry): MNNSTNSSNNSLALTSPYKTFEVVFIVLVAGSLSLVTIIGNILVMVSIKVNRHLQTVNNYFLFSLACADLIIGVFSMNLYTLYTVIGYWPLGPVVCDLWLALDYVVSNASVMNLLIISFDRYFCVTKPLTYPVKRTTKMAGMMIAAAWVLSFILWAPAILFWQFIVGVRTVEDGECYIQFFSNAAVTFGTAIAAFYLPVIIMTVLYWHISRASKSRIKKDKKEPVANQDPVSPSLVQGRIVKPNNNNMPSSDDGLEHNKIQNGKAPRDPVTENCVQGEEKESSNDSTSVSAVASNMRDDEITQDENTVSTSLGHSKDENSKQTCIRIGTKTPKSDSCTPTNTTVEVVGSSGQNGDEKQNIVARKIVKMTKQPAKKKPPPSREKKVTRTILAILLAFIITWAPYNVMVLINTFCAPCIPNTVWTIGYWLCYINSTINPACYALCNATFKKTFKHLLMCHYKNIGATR
Sodium-dependent serotonin transporter (Homo sapiens), sequence (P31645 whole entry, looked up): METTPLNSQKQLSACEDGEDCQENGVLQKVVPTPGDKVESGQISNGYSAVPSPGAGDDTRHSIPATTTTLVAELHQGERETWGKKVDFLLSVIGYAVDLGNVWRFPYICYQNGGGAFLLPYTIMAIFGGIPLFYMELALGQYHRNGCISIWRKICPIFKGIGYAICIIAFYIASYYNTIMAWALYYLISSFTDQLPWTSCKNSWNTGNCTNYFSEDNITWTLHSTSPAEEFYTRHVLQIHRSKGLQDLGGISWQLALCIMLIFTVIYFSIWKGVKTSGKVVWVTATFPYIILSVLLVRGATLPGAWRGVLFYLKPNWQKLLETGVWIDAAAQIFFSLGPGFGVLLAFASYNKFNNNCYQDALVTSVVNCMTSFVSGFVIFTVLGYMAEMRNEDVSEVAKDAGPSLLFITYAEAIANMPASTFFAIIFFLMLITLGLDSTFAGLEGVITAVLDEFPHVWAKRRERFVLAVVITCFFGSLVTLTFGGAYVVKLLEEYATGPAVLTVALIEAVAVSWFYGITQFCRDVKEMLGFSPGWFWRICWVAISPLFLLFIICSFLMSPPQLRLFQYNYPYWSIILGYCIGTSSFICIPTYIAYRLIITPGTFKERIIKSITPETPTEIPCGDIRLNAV
Sigma intracellular receptor 2, sequence (Q5BJF2 whole entry): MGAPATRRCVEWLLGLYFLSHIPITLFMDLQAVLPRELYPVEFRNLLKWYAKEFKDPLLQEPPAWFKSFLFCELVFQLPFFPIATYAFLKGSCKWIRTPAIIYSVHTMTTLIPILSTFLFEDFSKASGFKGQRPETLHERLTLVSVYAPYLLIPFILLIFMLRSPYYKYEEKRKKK
D(3) dopamine receptor (Homo sapiens), sequence (P35462 whole entry): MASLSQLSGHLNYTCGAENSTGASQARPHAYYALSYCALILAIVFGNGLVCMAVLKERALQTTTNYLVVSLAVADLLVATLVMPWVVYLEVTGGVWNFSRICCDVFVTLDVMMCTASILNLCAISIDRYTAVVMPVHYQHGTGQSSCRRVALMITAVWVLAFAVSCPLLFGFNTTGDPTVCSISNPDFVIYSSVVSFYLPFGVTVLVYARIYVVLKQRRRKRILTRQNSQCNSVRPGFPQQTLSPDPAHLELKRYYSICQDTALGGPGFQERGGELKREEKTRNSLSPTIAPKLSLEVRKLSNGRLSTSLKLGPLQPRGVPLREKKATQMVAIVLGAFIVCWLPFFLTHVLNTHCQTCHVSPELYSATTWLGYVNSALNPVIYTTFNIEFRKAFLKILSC
Histamine H1 receptor (Homo sapiens), sequence (P35367 whole entry): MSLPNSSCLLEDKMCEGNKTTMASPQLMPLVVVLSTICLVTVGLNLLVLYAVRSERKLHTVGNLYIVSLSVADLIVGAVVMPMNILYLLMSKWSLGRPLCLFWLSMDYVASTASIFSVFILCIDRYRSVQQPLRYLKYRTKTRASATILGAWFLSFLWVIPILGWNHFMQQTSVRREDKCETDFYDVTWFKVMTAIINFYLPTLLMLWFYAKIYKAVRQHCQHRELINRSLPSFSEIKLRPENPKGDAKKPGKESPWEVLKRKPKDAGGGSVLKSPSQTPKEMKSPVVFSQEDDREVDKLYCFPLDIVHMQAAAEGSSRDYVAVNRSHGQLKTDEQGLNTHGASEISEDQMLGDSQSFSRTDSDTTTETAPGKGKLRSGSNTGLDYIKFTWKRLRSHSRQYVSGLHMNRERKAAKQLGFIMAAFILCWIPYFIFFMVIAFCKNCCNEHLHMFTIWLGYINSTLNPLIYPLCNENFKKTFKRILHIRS
5-hydroxytryptamine receptor 6 (Homo sapiens), sequence (P50406 whole entry): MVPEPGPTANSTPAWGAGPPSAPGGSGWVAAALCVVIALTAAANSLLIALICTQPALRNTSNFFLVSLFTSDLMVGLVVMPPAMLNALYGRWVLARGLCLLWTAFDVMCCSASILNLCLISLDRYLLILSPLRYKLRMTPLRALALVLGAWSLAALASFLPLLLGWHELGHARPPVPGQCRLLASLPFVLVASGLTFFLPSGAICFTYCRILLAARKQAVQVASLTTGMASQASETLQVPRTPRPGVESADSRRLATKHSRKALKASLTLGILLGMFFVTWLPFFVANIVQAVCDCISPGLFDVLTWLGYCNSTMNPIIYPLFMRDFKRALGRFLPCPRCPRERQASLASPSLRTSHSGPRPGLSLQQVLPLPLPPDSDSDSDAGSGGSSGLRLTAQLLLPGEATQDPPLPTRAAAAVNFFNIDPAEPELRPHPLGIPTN
D(2) dopamine receptor (Homo sapiens), sequence (P14416 whole entry): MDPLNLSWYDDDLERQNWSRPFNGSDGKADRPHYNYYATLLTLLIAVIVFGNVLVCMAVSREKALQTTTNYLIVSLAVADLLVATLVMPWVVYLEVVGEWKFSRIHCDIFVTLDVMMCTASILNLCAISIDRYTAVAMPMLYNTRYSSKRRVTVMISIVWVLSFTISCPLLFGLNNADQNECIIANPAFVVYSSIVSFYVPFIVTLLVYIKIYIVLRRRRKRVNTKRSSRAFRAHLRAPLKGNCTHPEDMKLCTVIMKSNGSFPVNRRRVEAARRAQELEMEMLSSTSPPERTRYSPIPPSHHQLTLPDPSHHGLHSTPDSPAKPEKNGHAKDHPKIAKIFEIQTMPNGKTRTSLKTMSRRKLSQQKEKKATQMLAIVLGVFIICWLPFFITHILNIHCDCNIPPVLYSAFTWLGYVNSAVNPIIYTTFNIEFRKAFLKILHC
Mu-type opioid receptor (Homo sapiens), sequence (P35372 whole entry): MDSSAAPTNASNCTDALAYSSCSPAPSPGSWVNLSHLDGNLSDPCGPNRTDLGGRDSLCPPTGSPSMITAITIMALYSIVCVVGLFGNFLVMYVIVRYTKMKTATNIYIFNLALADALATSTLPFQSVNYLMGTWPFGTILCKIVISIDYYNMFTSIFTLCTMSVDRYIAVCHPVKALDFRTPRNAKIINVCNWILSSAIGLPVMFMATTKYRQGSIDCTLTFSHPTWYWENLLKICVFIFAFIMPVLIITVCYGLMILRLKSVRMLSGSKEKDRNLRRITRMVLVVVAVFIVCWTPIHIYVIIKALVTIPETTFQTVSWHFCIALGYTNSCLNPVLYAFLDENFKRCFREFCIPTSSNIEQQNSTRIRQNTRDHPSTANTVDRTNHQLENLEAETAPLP
Muscarinic acetylcholine receptor M1 (Homo sapiens), sequence (P11229 whole entry): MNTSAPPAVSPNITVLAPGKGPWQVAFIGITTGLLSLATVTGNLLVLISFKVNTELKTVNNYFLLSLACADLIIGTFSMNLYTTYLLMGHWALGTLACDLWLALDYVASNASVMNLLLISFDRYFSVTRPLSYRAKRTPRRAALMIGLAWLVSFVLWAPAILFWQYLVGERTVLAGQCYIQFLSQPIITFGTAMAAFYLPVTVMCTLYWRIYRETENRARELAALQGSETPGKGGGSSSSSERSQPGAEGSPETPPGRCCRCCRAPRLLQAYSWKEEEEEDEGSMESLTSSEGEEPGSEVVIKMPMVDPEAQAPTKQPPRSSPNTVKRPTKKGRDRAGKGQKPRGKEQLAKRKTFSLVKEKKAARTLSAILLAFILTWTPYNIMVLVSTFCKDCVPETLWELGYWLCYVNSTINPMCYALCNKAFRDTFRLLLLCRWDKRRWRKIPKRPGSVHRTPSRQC
Sigma non-opioid intracellular receptor 1 (Homo sapiens), sequence (Q99720 whole entry): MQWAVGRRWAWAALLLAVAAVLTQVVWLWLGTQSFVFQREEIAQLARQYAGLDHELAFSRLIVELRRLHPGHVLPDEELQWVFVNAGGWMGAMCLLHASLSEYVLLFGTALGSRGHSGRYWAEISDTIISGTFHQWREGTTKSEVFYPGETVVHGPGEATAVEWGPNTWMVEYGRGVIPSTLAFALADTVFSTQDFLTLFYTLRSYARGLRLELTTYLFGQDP
5-hydroxytryptamine receptor 2C (Homo sapiens), sequence (P28335 whole entry): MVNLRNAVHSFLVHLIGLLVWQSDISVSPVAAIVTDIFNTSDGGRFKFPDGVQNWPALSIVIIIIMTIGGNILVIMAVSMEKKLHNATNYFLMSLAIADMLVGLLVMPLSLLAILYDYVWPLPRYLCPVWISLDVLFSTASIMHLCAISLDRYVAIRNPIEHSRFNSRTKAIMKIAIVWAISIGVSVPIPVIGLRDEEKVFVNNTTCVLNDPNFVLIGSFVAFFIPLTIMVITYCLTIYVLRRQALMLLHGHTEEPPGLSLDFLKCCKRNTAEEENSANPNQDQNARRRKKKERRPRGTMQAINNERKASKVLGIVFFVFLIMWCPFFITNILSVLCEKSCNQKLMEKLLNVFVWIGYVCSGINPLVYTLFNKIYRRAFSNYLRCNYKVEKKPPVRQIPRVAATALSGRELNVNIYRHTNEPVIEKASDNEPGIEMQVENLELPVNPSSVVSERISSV

As to `O=C(Nc1ccc(-c2nc(-c3ccc(Cl)cc3)no2)cc1)C1CC(=O)N(Cc2ccco2)C1` (centres undefined), the inhibition in [1], in [2], in [4], in [5], in data set [6] and in data set [8] was below 50% in each case. Also, the inhibition in [11] is below 50%; in data set [13], below 50%; in data set [15] it was below 50%; in [16] it was 53%; in data set [18] it was 51%; in [19], below 50%. Also, the inhibition in [20], in data set [21], in [22] and in data set [23] was below 50% throughout. The Papp in data set [3] was 1.3 10^-6 cm/s. Further, in data set [7], the Ratio is 1. In addition, the PPB in data set [9] is 99.8%. Also, in data set [10], the t1/2 came to 1.9 h. For the same molecule, the affinity in [12], expressed as Ki, was 3.2 µM. The IC50 at Relaxin-3 receptor 1 [14] was 13.9 µM; at Relaxin-3 receptor 1 [17], 4.52 µM. In data set [24], the time of peak concentration (Tmax) was found to be 0.5 h.

By inhibition is commonly meant the change of the read-out against control, counted positive when it falls. One may read the Ki as the equilibrium dissociation constant of an inhibitor or competing ligand from its target. Higher therefore signals lower affinity. Broadly, the IC50 is the concentration that gives 50% inhibition. The term Tmax denotes the time from dosing to the highest level.
